The source of these data is US12421489B2, “Biological control of plant pathogenic microorganisms” (priority 2016, dated 2025).

Structures are written as SMILES.

The experiment concerns postharvest kiwifruit fruit pathogens. Description: Assays 8 and 9 overall: wound protection of ‘Hongyang’ kiwifruit (discussion). Type of experiment: in vivo. As to conditions: wounded ‘Hongyang’ kiwifruit, treatment 24 hours before pathogen. The procedure:
The kiwifruit ‘Hongyang’-based screening assays (assays 8 and 9) were conducted in laboratories at the Plant and Food Research Ruakura Research Centre, Hamilton, New Zealand (PFR). PFR assays focused on wound application of YBCA5 treatment, a commercial biological control treatment and a fungicide were used as comparative controls.
Just prior to wound treatment, each fruit was wounded on the side with a sterile stainless steel spike (4 mm deep×3 mm wide) and 10 μl of each treatment suspension was pipetted into the wound and allowed to dry.
For assays 8 and 9, two sterile paper towels were placed beneath Plix cut-outs, moistened with 40 mL SDW and each fruit placed in disposable lunch boxes (Plix Extra Deep 45/45, containing five Plix fruit cut-outs to prevent fruit from moving), sealed, then placed into large (40 L) plastic bins which were closed to ensure high relative humidity for the first 24 h and incubated on the lab bench at 24° C. […] After 6 days, (Alternaria spp. Botrytis spp., Penicillium spp., Phomopsis spp., Colletotrichum spp.) and 7 days (Cryptosporiopsis spp.), the severity of fungal rot was assessed for each treatment by measuring the lesion length (mm) along the axis of the fruit. Data were expressed as the average lesion length, minus the initial width of the wound (3 mm). […]

For the compound `CC(C)NC(=O)N1CC(=O)N(c2cc(Cl)cc(Cl)c2)C1=O` [iprodione], the “overall performance as wound protectant” value is reported as “performed poorly”.
